The values below come from PMC3434127, “Insights into Phosphate Cooperativity and Influence of Substrate Modifications on Binding and Catalysis of Hexameric Purine Nucleoside Phosphorylases” (PLoS ONE, 2012).

The target of the test is T1, BsPNP233 (Bacillus subtilis, UniProt O34925).
T1 construct: gene deoD; full length, 233 residues, N-terminal His-tag kept (eight tag residues seen in one crystal form), recombinant from E. coli, homohexamer (D3); active site at dimer interface
T1 sequence (O34925 1-233): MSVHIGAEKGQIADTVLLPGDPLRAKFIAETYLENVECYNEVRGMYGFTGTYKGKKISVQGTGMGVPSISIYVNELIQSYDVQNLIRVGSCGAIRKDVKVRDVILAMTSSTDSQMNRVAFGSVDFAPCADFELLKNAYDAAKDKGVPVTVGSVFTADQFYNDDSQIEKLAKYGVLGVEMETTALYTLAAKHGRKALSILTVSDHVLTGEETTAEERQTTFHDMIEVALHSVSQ
Kind of test: X-ray crystal structure (soaked crystal). The format is binding.

Setting [1] is: crystals grown in 0.1 M sodium acetate pH 4.6, 3.2 M NaCl, 5% glycerol, 291 K, nucleoside site.

Turning to `Nc1ncnc2c1ncn2[C@@H]1O[C@H](CO)[C@@H](O)[C@H]1O` [Ado, adenosine], under setting [1], the “X-ray crystal structure (soaked crystal)” value is “The base moiety of adenosine (Ado) binds to the BsPNP233 active site”.

Take `Nc1nc2c(ncn2COC(CO)CO)c(=O)[nH]1` [GCV, ganciclovir]: under setting [1], the “X-ray crystal structure (soaked crystal)” value is “GCV binds to the nucleoside binding site of BsPNP233”.

Take `Nc1ncnc2c1ccn2[C@@H]1O[C@H](CO)[C@@H](O)[C@H]1O` [TBN, tubercidin]: the “X-ray crystal structure (soaked crystal)” value under setting [1] is “TBN presented an interaction mode very similar to that seen for the natural substrate adenosine”.

On to `O=c1[nH]cnc2nc[nH]c12` [Hyp, hypoxanthine], for which the “X-ray crystal structure (soaked crystal)” value (crystals grown in 0.1 M sodium acetate pH 4.6, 3.2 M NaCl, 5% glycerol, 291 K, purine-binding site, glycerol in ribose site) is “crystal structures of BsPNP233 in complex with hypoxanthine (Hyp) and adenine (Ade)”.

In the case of `Nc1nc2c(ncn2COCCO)c(=O)[nH]1` [ACV, aciclovir], the “X-ray crystal structure (soaked crystal)” value (crystals grown in 0.1 M sodium acetate pH 4.6, 3.2 M NaCl, 5% glycerol, 291 K, nucleoside site, two conformations of the acyclic chain, half-occupancy phosphate modelled) was “Aciclovir binds to the BsPNP233 nucleoside binding site”.

For `Nc1nc(Cl)c2ncn([C@@H]3O[C@H](CO)[C@@H](O)[C@H]3O)c2n1` [Cl-Guo, 6-chloroguanosine], under setting [1], the “X-ray crystal structure (soaked crystal)” value is recorded as “The molecule Cl-Guo displays a similar binding mode to that observed for dGuo”.

For the compound `Nc1nc2c(nc(Br)n2[C@@H]2O[C@H](CO)[C@@H](O)[C@H]2O)c(=O)[nH]1` [Br-Guo, 8-bromoguanosine], the “X-ray crystal structure (soaked crystal)” value under setting [1] is “The ribosyl moiety of Br-Guo presents a typical C4′–endo conformation and binds to the active site”.

On to `Nc1nc(F)nc2c1ncn2[C@@H]1O[C@H](CO)[C@@H](O)[C@H]1O` [F-Ado, 2-fluoradenosine], for which the “X-ray crystal structure (soaked crystal)” value under setting [1] is listed as “The crystal structure of BsPNP233-(F-Ado) complex had two BsPNP233 subunits per asymmetric unit”.

Regarding `Nc1ncnc2[nH]cnc12` [Ade, adenine], the “X-ray crystal structure (soaked crystal)” value (purine-binding site, solved without (4DAO) and with sulfate (form I, 4D8V)) is reported as “The BsPNP233-Ade binary complex was solved with (BsPNP233-Ade-SO4) or without (BsPNP233-Ade) sulfate ion”.
